From patent US5191093A, “Process for preparing crystalline calcium pseudomonate” (Beecham Group p.l.c., priority 1990, dated 1993)
Counter-ions that a name gives are not always drawn. Like-named read-outs stand apart in the source and are kept apart here.

Experiments:
Water solubility = type: physicochemical; details: amorphous form
[1] = type: physicochemical
From the text: |Thermal stability data: for crystalline calcium |pseudomate dihydrate, amorphous calcium pseudomonate |Percentage |Initial |Potency |after |Storage ** | ** Expressed as percentage of initial purity.

M.bovigenitalium = experiment: In vitro MIC against Mycoplasma, Friis broth agarose; type: cell-based; details: 144 h; strain ATCC 14173; 6 days at 37° C.
Protocol: (§1) The activity of the compounds of the Examples against various mycoplasmal organisms was assayed in vitro in Friis broth solidified with 0.9% agarose and inoculated with 10^3 to 10^5 C.F.U. The minimum inhibitory concentrations (MIC's) were determined after incubation for 6 days at 37° C. and are shown in Table 1.

M.hyopneumoniae = experiment: as above; type: cell-based
Protocol: as §1

M.hyosynoviae = experiment: as above; type: cell-based; details: 144 h; strain ATCC 25591; 6 days at 37° C.
Protocol: as §1

M.bovis = experiment: as above; type: cell-based; details: NCTC10131, 144 h
Protocol: as §1

M.hyorhinis = experiment: as above; type: cell-based; details: Mesomycoplasma hyorhinis, 6 days at 37° C.
Protocol: as §1

M.gallisepticum = experiment: as above; type: cell-based; details: Mycoplasmoides gallisepticum, 144 h; strain S6; 6 days at 37° C.
Protocol: as §1

M.pneumoniae = experiment: as above; type: cell-based; details: Mycoplasmoides pneumoniae, ATCC15492, 144 h; strain ATCC 15492; 6 days at 37° C.
Protocol: as §1

[2] = tested on: Erysipelothrix rhusiopathiae; experiment: In vitro MIC against veterinary bacteria, Diagnostic Sensitivity Test Agar; type: cell-based; details: NCTC8163, strain NCTC 8163, 18 hours at 37° C.
Protocol: (§2) The activity of the compounds of the Examples against various veterinarily important bacteria, was assayed in vitro using two-fold serial dilutions in Diagnostic Sensitivity Test Agar inoculated with 10^4 organisms.

Corynebacterium pyogenes = experiment: as above; type: cell-based; details: Trueperella pyogenes; strain CY1; 18 hours at 37° C.
Protocol: as §2

Strep.uberis = experiment: as above; type: cell-based; details: Streptococcus uberis; strain SPU1; 18 hours at 37° C.
Protocol: as §2

Past.multocida = experiment: as above; type: cell-based; details: Pasteurella multocida; strain PA1; 18 hours at 37° C.
Protocol: as §2

Moraxella Bovis = experiment: as above; type: cell-based; details: 18 hours at 37° C.
Protocol: as §2

B.subtilis = experiment: as above; type: cell-based; details: Bacillus subtilis, ATCC6633; strain ATCC 6633; 18 hours at 37° C.
Protocol: as §2

S.typhimurium = experiment: as above; type: cell-based; details: Salmonella enterica, strain S18, 18 hours at 37° C.
Protocol: as §2

Strep.suis (group D) = experiment: as above; type: cell-based; details: Streptococcus suis; strain SPS11; 18 hours at 37° C.
Protocol: as §2

Past.haemolytica = experiment: as above; type: cell-based; details: Mannheimia haemolytica; strain PA5; 18 hours at 37° C.
Protocol: as §2

S.dublin = experiment: as above; type: cell-based; details: Salmonella enterica; strain S7; 18 hours at 37° C.
Protocol: as §2

Strep.dysgalaciae = experiment: as above; type: cell-based; details: strain SPD1; 18 hours at 37° C.
Protocol: as §2

Bord.bronchiseptica = experiment: as above; type: cell-based; details: Bordetella bronchiseptica, 18 h, 18 hours at 37° C.
Protocol: as §2

Strep.agalactiae = experiment: as above; type: cell-based; details: Streptococcus agalactiae; strain SPA1; 18 hours at 37° C.
Protocol: as §2

Staph.aureus = experiment: as above; type: cell-based; details: Staphylococcus aureus, 18 h, 18 hours at 37° C.
Protocol: as §2

E.coli [3] = experiment: as above; type: cell-based; details: Escherichia coli, 18 hours at 37° C.
Protocol: as §2

S.agalactiae = experiment: In vitro MIC against human bacteria, nutrient agar with 5% chocolated horse blood; type: cell-based; details: 18 hours at 37° C.
Protocol: (§3) The activity of the compounds of the Examples against various bacteria which are important in diseases of humans, was assayed in vitro using serial dilutions in nutrient agar with 5% chocolated horse blood.

K.aerogenes = experiment: as above; type: cell-based; details: Klebsiella aerogenes; strain A; 18 hours at 37° C.
Protocol: as §3

Streptococcus Spp = experiment: as above; type: cell-based; details: 18 hours at 37° C.
Protocol: as §3

Corynebacterium xerosis = experiment: as above; type: cell-based; details: strain 9755, 18 hours at 37° C.
Protocol: as §3

S.pneumoniae = experiment: as above; type: cell-based; details: Streptococcus pneumoniae; strain CN33; 18 hours at 37° C.
Protocol: as §3

S.aureus = experiment: as above; type: cell-based; details: Staphylococcus aureus, 18 h, 18 hours at 37° C.
Protocol: as §3

R.mirabilis = experiment: as above; type: cell-based; details: strain 889; 18 hours at 37° C.
Protocol: as §3

S.faecalis = experiment: as above; type: cell-based; details: 18 hours at 37° C.
Protocol: as §3

Haemophilus influenzae = experiment: as above; type: cell-based; details: 18 hours at 37° C.
Protocol: as §3

Sarcina lutea = experiment: as above; type: cell-based; details: Micrococcus luteus; strain 8340; 18 hours at 37° C.
Protocol: as §3

Pasteurella multocida = experiment: as above; type: cell-based; details: strain 1633, 18 hours at 37° C.
Protocol: as §3

Neisseria catarrhalis = experiment: as above; type: cell-based; details: strain 1502, 18 hours at 37° C.
Protocol: as §3

E.coli [4] = experiment: as above; type: cell-based; details: Escherichia coli, 18 hours at 37° C.
Protocol: as §3

P.aeruginosa = experiment: as above; type: cell-based; details: Pseudomonas aeruginosa; strain 10662; 18 hours at 37° C.
Protocol: as §3

S.pyogenes = experiment: as above; type: cell-based; details: Streptococcus pyogenes, 18 h, 18 hours at 37° C.
Protocol: as §3

Bacillus subtilis = experiment: as above; type: cell-based; details: strain 6633, 18 hours at 37° C.
Protocol: as §3

SMILES: CC(=CC(=O)OCCCCCCCCC(=O)O)CC1OCC(CC2OC2C(C)C(C)O)C(O)C1O (centres unmarked) [Anhydrous Amorphous Calcium Salt, Amorphous Anhydrous Calcium Pseudomonate A]
- water solubility (in words) (Water solubility): sparingly water soluble
- thermal stability (in words) [1]: poor thermal stability
- Percentage Initial Potency after Storage ([1]; 192 h): 29%
- Percentage Initial Potency after Storage ([1]; 240 h): 83.3%

SMILES: CC(=CC(=O)OCCCCCCCCC(=O)O)CC1OCC(CC2OC2C(C)C(C)O)C(O)C1O (centres unmarked) [Calcium Pseudomonate dihydrate, Calcium Pseudomonate Dihydrate]
- MIC (M.bovigenitalium): 0.1 µg/mL
- MIC (M.hyopneumoniae; Mesomycoplasma hyopneumoniae, 144 h, mean of M.hyopneumoniae strains, read-out: MIC, MEAN): 2.5 µg/mL
- MIC (M.hyopneumoniae; Mesomycoplasma hyopneumoniae, 144 h, strain JF 435, 6 days at 37° C., read-out: MIC): 2.5 µg/mL
- MIC (M.hyopneumoniae; Mesomycoplasma hyopneumoniae, NCTC10110, 144 h, strain NCTC 10110, 6 days at 37° C., read-out: MIC): 2.5 µg/mL
- MIC (M.hyopneumoniae; strain ATTCC 25095, 6 days at 37° C.): 2.5 µg/mL
- MIC (M.hyopneumoniae; strain HK (2), 6 days at 37° C.): 2.5 µg/mL
- MIC (M.hyopneumoniae; strain J2206/183b, 6 days at 37° C.): 2.5 µg/mL
- MIC (M.hyopneumoniae; strain LABER, 6 days at 37° C.): 2.5 µg/mL
- MIC (M.hyopneumoniae; strain MS16, 6 days at 37° C.): 2.5 µg/mL
- MIC (M.hyopneumoniae; strain PW/C/210, 6 days at 37° C.): 2.5 µg/mL
- MIC (M.hyopneumoniae; strain Str 11, 6 days at 37° C.): 2.5 µg/mL
- MIC (M.hyopneumoniae; strain TAM 6N, 6 days at 37° C.): 2.5 µg/mL
- MIC (M.hyopneumoniae; strain UCD1, 6 days at 37° C.): 2.5 µg/mL
- MIC (M.hyosynoviae): 0.5 µg/mL
- MIC (M.bovis): 0.025 µg/mL
- MIC (M.hyorhinis; ATCC23234, 144 h, strain ATCC 23234): 1 µg/mL
- MIC (M.hyorhinis; ATCC25021, 144 h, strain ATCC 25021): 1 µg/mL
- MIC (M.gallisepticum): > 10 µg/mL
- MIC (M.pneumoniae): 5 µg/mL
- Percentage Initial Potency after Storage ([1]; 192 h): 97%
- Percentage Initial Potency after Storage ([1]; 240 h): 98.9%
- MIC [2]: 20 µg/mL
- MIC (Corynebacterium pyogenes): > 80 µg/mL
- MIC (Strep.uberis): 0.07 µg/mL
- MIC (Past.multocida): 0.07 µg/mL
- MIC (Moraxella Bovis): 0.31 µg/mL
- MIC (B.subtilis): 0.07 µg/mL
- MIC (S.typhimurium): 80 µg/mL
- MIC (Strep.suis (group D)): 0.63 µg/mL
- MIC (Past.haemolytica): 2.5 µg/mL
- MIC (S.dublin): 80 µg/mL
- MIC (Strep.dysgalaciae): 0.16 µg/mL
- MIC (Bord.bronchiseptica; strain B08): 5 µg/mL
- MIC (Bord.bronchiseptica; strain B09): 1.3 µg/mL
- MIC (Strep.agalactiae): 0.16 µg/mL
- MIC (Staph.aureus; strain 152 (pen.sens.)): 0.16 µg/mL
- MIC (Staph.aureus; strain (Mexi)): 0.16 µg/mL
- MIC (Staph.aureus; strain B4 (pen.resistant)): 0.16 µg/mL
- MIC (Staph.aureus; strain M60): 0.16 µg/mL
- MIC (Staph.aureus; strain Oxford): < 0.1 µg/mL
- MIC (E.coli [3]; NCTC10418, strain NCTC 10418): 80 µg/mL
- MIC (E.coli [3]; strain E1): 80 µg/mL
- MIC (S.agalactiae; Streptococcus agalactiae, strain 2788-B, read-out: MIC): 0.5 µg/mL
- MIC (S.agalactiae; strain 2798B): 0.5 µg/mL
- MIC (S.agalactiae; strain 2866B): 0.5 µg/mL
- MIC (K.aerogenes): > 128 µg/mL
- MIC (Streptococcus Spp; Streptococcus, S.spp. strain 64/848-C, read-out: MIC): 0.5 µg/mL
- MIC (Streptococcus Spp; strain 2373C): 0.5 µg/mL
- MIC (Streptococcus Spp; strain 2465C): 0.5 µg/mL
- MIC (Streptococcus Spp; strain 2761C): 0.5 µg/mL
- MIC (Corynebacterium xerosis): > 128 µg/mL
- MIC (S.pneumoniae): 0.03 µg/mL
- MIC (S.aureus; strain Oxford, read-out: MIC): 0.13 µg/mL
- MIC (S.aureus; strain Russell, read-out: MIC): 0.25 µg/mL
- MIC (S.aureus; strain T2P-, read-out: MIC): 0.25 µg/mL
- MIC (S.aureus; strain T22P-): 0.25 µg/mL
- MIC (S.aureus; strain T63P+): 0.25 µg/mL
- MIC (S.aureus; strain T67P+): 0.5 µg/mL
- MIC (S.aureus; strain V331, read-out: MIC): 0.5 µg/mL
- MIC (S.aureus; strain V352, read-out: MIC): 0.5 µg/mL
- MIC (S.aureus; strain W2827, read-out: MIC): 0.25 µg/mL
- MIC (R.mirabilis): 128 µg/mL
- MIC (S.faecalis; Enterococcus faecalis, strain Tunisia, read-out: MIC): 128 µg/mL
- MIC (S.faecalis; strain I(ER+)): 128 µg/mL
- MIC (S.faecalis; strain I): 128 µg/mL
- MIC (S.faecalis; strain PAGE): 128 µg/mL
- MIC (Haemophilus influenzae; Haemophilus influenzae, strain Q1, read-out: MIC): 0.13 µg/mL
- MIC (Haemophilus influenzae; strain Wy21): 0.13 µg/mL
- MIC (Sarcina lutea): > 128 µg/mL
- MIC (Pasteurella multocida): 0.5 µg/mL
- MIC (Neisseria catarrhalis): 0.13 µg/mL
- MIC (E.coli [4]; NCTC10418, strain NCTC 10418): 128 µg/mL
- MIC (E.coli [4]; strain ESS): 2 µg/mL
- MIC (P.aeruginosa): > 128 µg/mL
- MIC (S.pyogenes; strain 1947A): 0.13 µg/mL
- MIC (S.pyogenes; strain 1953-A): 0.13 µg/mL
- MIC (S.pyogenes; strain BcA): 0.5 µg/mL
- MIC (S.pyogenes; strain CN10A): 0.03 µg/mL
- MIC (Bacillus subtilis): 0.5 µg/mL

SMILES: C/C(=C\C(=O)OCCCCCCCCC(=O)O)C[C@@H]1OC[C@H](C[C@@H]2O[C@H]2[C@@H](C)[C@H](C)O)[C@@H](O)[C@H]1O [Pseudomonic Acid, Pseudomonic acid]
- Percentage Initial Potency after Storage ([1]; 192 h): 0%
- Percentage Initial Potency after Storage ([1]; 240 h): 77.9%

SMILES: CC(=CC(=O)OCCCCCCCCC(=O)O)CC1OCC(CC2OC2C(C)C(C)O)C(O)C1O (centres unmarked) [crystalline calcium pseudomonate, calcium pseudomonate]
- thermal stability (in words) [1]: outstandingly good thermal stability
